For one data set, the target named is human PPARγ LBD (Homo sapiens, UniProt P37231). Particulars: FIG. 1.

The structures appear in SMILES notation.

Sequence of human PPARγ LBD (P37231 238-503 limits assumed): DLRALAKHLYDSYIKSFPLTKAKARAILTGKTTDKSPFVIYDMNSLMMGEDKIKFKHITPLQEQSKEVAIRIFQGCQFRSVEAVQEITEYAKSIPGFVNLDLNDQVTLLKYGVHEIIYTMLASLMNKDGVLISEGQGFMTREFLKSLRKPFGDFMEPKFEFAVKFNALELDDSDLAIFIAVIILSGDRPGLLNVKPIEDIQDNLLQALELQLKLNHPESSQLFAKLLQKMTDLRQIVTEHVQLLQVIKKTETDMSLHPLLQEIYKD

As to `O=C(Nc1ccc(OCc2cccs2)cc1C(=O)[O-])c1ccc(Cl)cc1Cl.[Li+]` [Example 1, Lithium 2-[(2,4-dichlorobenzoyl)amino]-5-(2-thienylmethoxy)benzoate], the melting point (commonly the temperature, or range, at which the solid turns liquid) lay within 165 to 168 °C. Further, the “location of the compound in the structure of the human PPARγ LBD complex” value at human PPARγ LBD is reported as “located in the ligand binding pocket of human PPARγ”.

The record behind these values is US20030073862A1, “Compounds” (priority 2001, published 2003).
